# Experimental data published in patent US9815796B2 (Merck Sharp & Dohme Corp., priority 2013, dated 2017).
# Read-outs that look alike come from different tables or passages of the source.
# Columns and labels:
# Rhesus PDE2A3 = Rhesus PDE2A3 (Macaca mulatta, UniProt B3VTJ2); experiment: PDE2 fluorescence polarization (IMAP FP) inhibition assay, rhesus enzyme; type: biochemical, rhesus macaque
# In short: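 IMAP FP (mP from parallel and perpendicular fluorescence against substrate-only control) was read ≥1 h after adding binding reagent. The preceding 60 min room-temperature reaction contained FAM-cAMP (50 nM) and cGMP (1 uM) in pH 7.2 Tris buffer with MgCl2 and DTT. Enzyme was supernatant of sonicated AD293 cells expressing rhesus PDE2A3; compounds were 3-fold titrated, DMSO 1% final.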
# human PDE2A1 = human PDE2A1 (Homo sapiens (Human), UniProt O00408); experiment: IMAP FP PDE selectivity panel, human PDE2A1; type: biochemical; conditions: Human PDE2, Lab B; read-out: Human PDE2 Ki (nM) - Lab B
# In short: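 IMAP FP format: substrate 50 nM FAM-cAMP plus 1000 nM cGMP, enzyme (insect-cell GST-tagged human PDE2A1) at ~20% conversion, 60 min reaction at room temperature. Apparent inhibition constants calculated from parallel/perpendicular fluorescence with KM 10,000 nM.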
# [1] = Rhesus PDE2, Lab B, read-out: Rhesus PDE2 Ki (nM) - Lab B
# Chain of human PDE2A1 (O00408 other isoform, or with tags, fused parts or gaps): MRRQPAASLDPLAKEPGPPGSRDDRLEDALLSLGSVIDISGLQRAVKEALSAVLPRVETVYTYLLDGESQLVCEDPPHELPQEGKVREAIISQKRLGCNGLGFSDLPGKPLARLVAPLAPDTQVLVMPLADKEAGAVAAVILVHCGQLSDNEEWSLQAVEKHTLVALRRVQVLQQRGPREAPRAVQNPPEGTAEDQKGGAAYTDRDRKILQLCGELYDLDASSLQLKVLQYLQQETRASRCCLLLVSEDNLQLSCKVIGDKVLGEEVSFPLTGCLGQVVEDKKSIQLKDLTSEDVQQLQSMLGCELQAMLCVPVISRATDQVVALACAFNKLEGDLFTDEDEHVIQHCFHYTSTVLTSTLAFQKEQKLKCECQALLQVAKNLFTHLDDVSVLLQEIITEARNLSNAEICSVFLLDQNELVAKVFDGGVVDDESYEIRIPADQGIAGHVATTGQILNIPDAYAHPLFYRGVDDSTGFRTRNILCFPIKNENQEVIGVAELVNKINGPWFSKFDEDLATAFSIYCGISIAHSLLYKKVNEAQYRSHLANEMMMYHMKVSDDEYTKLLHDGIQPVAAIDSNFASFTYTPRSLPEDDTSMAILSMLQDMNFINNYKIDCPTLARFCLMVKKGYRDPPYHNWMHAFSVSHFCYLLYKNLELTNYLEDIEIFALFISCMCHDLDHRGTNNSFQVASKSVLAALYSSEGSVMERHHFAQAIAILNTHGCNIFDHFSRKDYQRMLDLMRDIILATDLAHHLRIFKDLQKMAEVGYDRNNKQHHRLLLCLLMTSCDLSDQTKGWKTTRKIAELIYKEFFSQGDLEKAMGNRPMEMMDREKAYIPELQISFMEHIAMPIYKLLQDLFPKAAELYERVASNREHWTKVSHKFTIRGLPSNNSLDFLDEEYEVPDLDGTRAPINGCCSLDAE
# Chain of Rhesus PDE2A3 (B3VTJ2 1-941): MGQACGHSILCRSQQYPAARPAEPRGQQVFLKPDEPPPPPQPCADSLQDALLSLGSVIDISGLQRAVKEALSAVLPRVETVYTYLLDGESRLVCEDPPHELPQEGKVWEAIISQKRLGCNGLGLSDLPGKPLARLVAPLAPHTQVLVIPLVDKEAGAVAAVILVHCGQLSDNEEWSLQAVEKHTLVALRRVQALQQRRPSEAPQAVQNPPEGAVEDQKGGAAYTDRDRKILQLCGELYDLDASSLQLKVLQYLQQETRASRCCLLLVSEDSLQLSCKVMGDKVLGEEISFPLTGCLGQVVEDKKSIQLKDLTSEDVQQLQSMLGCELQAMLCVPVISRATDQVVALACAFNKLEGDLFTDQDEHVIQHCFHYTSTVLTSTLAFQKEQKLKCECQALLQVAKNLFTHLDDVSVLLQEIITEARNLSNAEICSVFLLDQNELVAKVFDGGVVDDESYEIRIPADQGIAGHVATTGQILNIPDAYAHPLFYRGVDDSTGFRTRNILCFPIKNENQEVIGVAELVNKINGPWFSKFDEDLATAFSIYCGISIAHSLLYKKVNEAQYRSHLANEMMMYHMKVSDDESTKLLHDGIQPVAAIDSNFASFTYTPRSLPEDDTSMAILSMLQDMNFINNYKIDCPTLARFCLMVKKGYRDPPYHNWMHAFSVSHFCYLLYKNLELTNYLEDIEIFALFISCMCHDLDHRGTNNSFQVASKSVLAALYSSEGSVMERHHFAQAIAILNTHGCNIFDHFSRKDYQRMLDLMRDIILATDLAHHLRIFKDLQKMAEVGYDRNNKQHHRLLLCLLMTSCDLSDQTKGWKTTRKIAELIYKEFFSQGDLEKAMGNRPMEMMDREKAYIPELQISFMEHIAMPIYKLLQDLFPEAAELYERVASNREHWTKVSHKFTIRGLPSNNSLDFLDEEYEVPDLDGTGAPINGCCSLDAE
Structure (SMILES),Ki (Rhesus PDE2A3; [1]) [nM],Ki (human PDE2A1) [nM],"Ki (Rhesus PDE2A3; Rhesus PDE2, Lab A, read-out: Rhesus PDE2 Ki (nM) - Lab A) [nM]"
"CC(NC(=O)c1cc(=O)[nH]c(-c2ccccc2)n1)c1ccc(C(C)(C)C)cc1 (stereo not drawn) [Example 391, N-[1-(4-tert-butylphenyl)ethyl]-6-oxo-2-phenyl-1,6-dihydropyrimidine-4-carboxamide]",65,40,
"O=C(NC(c1ccc(C(F)(F)F)cc1)C(F)(F)F)c1cc(=O)[nH]c(-c2ccccc2)n1 (stereo not drawn) [Example 393, 6-oxo-2-phenyl-N-{2,2,2-trifluoro-1-[4-(trifluoromethyl)phenyl]ethyl}-1,6-dihydropyrimidine-4-carboxamide]",55,49,
"O=C(NC1(c2ccc(C(F)(F)F)cc2)COC1)c1cc(=O)[nH]c(-c2ccccc2)n1 [Example 402, 6-oxo-2-phenyl-N-{3-[4-(trifluoromethyl)phenyl]oxetan-3-yl}-1,6-dihydropyrimidine-4-carboxamide]",38,29,
"Cc1nc(C(=O)N[C@@H](c2ccc(S(F)(F)(F)(F)F)cc2)C2CC2)cc(=O)[nH]1 [Example 405, N-{(R)-cyclopropyl[4-(pentafluoro-λ^6-sulfanyl)phenyl]methyl}-2-methyl-6-oxo-1,6-dihydropyrimidine-4-carboxamide]",17,15,
"C[C@@H](NC(=O)c1cc(=O)[nH]c(-c2ccccc2)n1)c1ccc(C(F)(F)F)c(F)c1F [Example 408, N-{(1R)-1-[2,3-difluoro-4-(trifluoromethyl)phenyl]ethyl}-6-oxo-2-phenyl-1,6-dihydropyrimidine-4-carboxamide]",17,11,
"O=C(N[C@@H](c1ccc(S(F)(F)(F)(F)F)cc1)C1CC1)c1cc(=O)[nH]c(-c2ncccn2)n1 [Example 412, N-{(R)-cyclopropyl[4-(pentafluoro-λ^6-sulfanyl)phenyl]methyl}-6-oxo-1,6-dihydro-2,2′-bipyrimidine-4-carboxamide]",9.9,10,
"N#CC(NC(=O)c1cc(=O)[nH]c(-c2ccccc2)n1)c1ccc(C(F)(F)F)cc1 (stereo not drawn) [Example 413, N-{cyano[4-(trifluoromethyl)phenyl]methyl}-6-oxo-2-phenyl-1,6-dihydropyrimidine-4-carboxamide]",105,126,
"O=C(NC1(c2ccc(C(F)(F)F)cc2)CCCC1)c1cc(=O)[nH]c(-c2ccccc2)n1 [Example 415, 6-oxo-2-phenyl-N-{1-[4-(trifluoromethyl)phenyl]cyclopentyl}-1,6-dihydropyrimidine-4-carboxamide]",29,30,
"O=C(N[C@@H](c1ccc(SC(F)(F)F)c(F)c1)C1CC1)c1cc(=O)[nH]c(-c2ccccc2)n1 [Example 417, N-[(R)-cyclopropyl{3-fluoro-4-[(trifluoromethyl)sulfanyl]phenyl}methyl]-6-oxo-2-phenyl-1,6-dihydropyrimidine-4-carboxamide]",12,9.8,
"C[C@@H](NC(=O)c1cc(=O)[nH]c(-c2ccccc2)n1)c1ccc(Cl)cc1 [Example 418, N-[(1R)-1-(4-chlorophenyl)ethyl]-6-oxo-2-phenyl-1,6-dihydropyrimidine-4-carboxamide]",48,41,
"O=C(NC(CCO)c1ccc(C(F)(F)F)cc1)c1cc(=O)[nH]c(-c2ccccc2)n1 (stereo not drawn) [Example 421, N-{3-hydroxy-1-[4-(trifluoromethyl)phenyl]propyl}-6-oxo-2-phenyl-1,6-dihydropyrimidine-4-carboxamide]",14,9.4,
"Cc1nc(C(=O)N[C@@H](c2ccc(OC(F)F)cc2)C2(C)CC2)cc(=O)[nH]1 [Example 425, N-[(R)-[4-(difluoromethoxy)phenyl](1-methylcyclopropyl)methyl]-2-methyl-6-oxo-1,6-dihydropyrimidine-4-carboxamide]",29,30,
"Cc1nc(C(=O)N[C@@H](c2ccc(C3CC3)c(F)c2)C2CC2)cc(=O)[nH]1 [Example 426, N-[(R)-cyclopropyl(4-cyclopropyl-3-fluorophenyl)methyl]-2-methyl-6-oxo-1,6-dihydropyrimidine-4-carboxamide]",9.1,9.5,

# Second part, the compound after the results:
Ki (Rhesus PDE2A3; [1]) [nM],Ki (human PDE2A1) [nM],"Ki (Rhesus PDE2A3; Rhesus PDE2, Lab A, read-out: Rhesus PDE2 Ki (nM) - Lab A) [nM]",Structure (SMILES)
9.6,8.1,,"COc1cc(OC(F)(F)F)ccc1C(C)NC(=O)c1cc(=O)[nH]c(-c2ccccc2)n1 (stereo not drawn) [Example 387, N-{1-[2-methoxy-4-(trifluoromethoxy)phenyl]ethyl}-6-oxo-2-phenyl-1,6-dihydropyrimidine-4-carboxamide]"
4.7,3.9,,"CC(C)[C@@H](NC(=O)c1cc(=O)[nH]c(-c2ccccc2)n1)c1ccc(S(F)(F)(F)(F)F)cc1 [Example 388, N-{(1R)-2-methyl-1-[4-(pentafluoro-λ^6-sulfanyl)phenyl]propyl}-6-oxo-2-phenyl-1,6-dihydropyrimidine-4-carboxamide]"
5.5,3.3,,"C[C@@H](O)[C@@H](NC(=O)c1cc(=O)[nH]c(-c2ccccc2)n1)c1ccc(C(F)(F)F)cc1 [Example 392, N-{(1S,2R)-2-hydroxy-1-[4-(trifluoromethyl)phenyl]propyl}-6-oxo-2-phenyl-1,6-dihydropyrimidine-4-carboxamide]"
8.2,8.6,,"O=C(N[C@@H](c1ccc(S(F)(F)(F)(F)F)cc1)C1CC1)c1cc(=O)[nH]c(C2CC2)n1 [Example 397, 2-cyclopropyl-N-{(R)-cyclopropyl[4-(pentafluoro-λ^6-sulfanyl)phenyl]methyl}-6-oxo-1,6-dihydropyrimidine-4-carboxamide]"
2.9,2.3,,"C[C@@H](NC(=O)c1cc(=O)[nH]c(-c2ccccc2)n1)c1ccc(SC(F)(F)F)c(F)c1 [Example 398, N-[(1R)-1-{3-fluoro-4-[(trifluoromethyl)sulfanyl]phenyl}eth-yl]-6-oxo-2-phenyl-1,6-dihydropyrimidine-4-carboxamide]"
5.2,5.8,,"C[C@@H](NC(=O)c1cc(=O)[nH]c(-c2ccccc2)n1)c1ccc(S(F)(F)(F)(F)F)cc1 [Example 401, 6-oxo-N-{(1R)-1-[4-(pentafluoro-λ^6-sulfanyl)phenyl]ethyl}-2-phenyl-1,6-dihydropyrimidine-4-carboxamide]"
9.5,6.5,,"O=C(N[C@@H](c1ccc(S(F)(F)(F)(F)F)cc1)C1CC1)c1cc(=O)[nH]c(-c2ccccc2)n1 [Example 404, N-{(R)-cyclopropyl[4-(pentafluoro-λ^6-sulfanyl)phenyl]methyl}-6-oxo-2-phenyl-1,6-dihydropyrimidine-4-carboxamide]"
4.5,3.6,,"CC(C)[C@@H](NC(=O)c1cc(=O)[nH]c(-c2ccccc2)n1)c1ccc(SC(F)(F)F)c(F)c1 [Example 407, N-[(1R)-1-{3-fluoro-4-[(trifluoromethyl)sulfanyl]phenyl}-2-methylpropyl]-6-oxo-2-phenyl-1,6-dihydropyrimidine-4-carboxamide]"
3.3,2.9,,"CC(C)[C@@H](NC(=O)c1cc(=O)[nH]c(-c2ccccc2)n1)c1ccc(SC(F)(F)F)cc1 [Example 419, N-[(1R)-2-methyl-1-{4-[(trifluoromethyl)sulfanyl]phenyl}pro-pyl]-6-oxo-2-phenyl-1,6-dihydropyrimidine-4-carboxamide]"
7.3,5.9,,"CC[C@@H](NC(=O)c1cc(=O)[nH]c(-c2ccccc2)n1)c1ccc(C(F)(F)F)c(F)c1 [Example 420, N-{(1R)-1-[3-fluoro-4-(trifluoromethyl)phenyl]propyl}-6-oxo-2-phenyl-1,6-dihydropyrimidine-4-carboxamide]"
,5.6,3,"C[C@@H](NC(=O)c1cc(=O)[nH]c(-c2ccccc2)n1)c1ccc(C2CC2)cc1 [Example 423, N-[(1R)-1-(4-cyclopropylphenyl)ethyl]-6-oxo-2-phenyl-1,6-dihydropyrimidine-4-carboxamide]"
7.2,9.2,,"Cc1nc(C(=O)N[C@@H](c2ccc(S(F)(F)(F)(F)F)cc2)C2(C)CC2)cc(=O)[nH]1 [Example 424, 2-methyl-N-{(R)-(1-methylcyclopropyl)[4-(pentafluoro-λ^6-sulfanyl)phenyl]methyl}-6-oxo-1,6-dihydropyrimidine-4-carboxamide]"
3.7,3.7,,"Cc1nc(C(=O)N[C@@H](c2ccc(C(C)C)cc2)C2(C)CC2)cc(=O)[nH]1 [Example 427, 2-methyl-N-{(R)-(1-methylcyclopropyl)[4-(1-methylethyl)phenyl]methyl}-6-oxo-1,6-dihydropyrimidine-4-carboxamide]"
1.9,1.8,,"Cc1nc(C(=O)N[C@@H](c2ccc(C3CC3)c(F)c2)C(C)(C)C)cc(=O)[nH]1 [Example 428, N-[(1R)-1-(4-cyclopropyl-3-fluorophenyl)-2,2-dimethylpropyl]-2-methyl-6-oxo-1,6-dihydropyrimidine-4-carboxamide]"
6.7,7.9,,O=C(N[C@@H](c1ccc(SC(F)(F)F)c(F)c1)C1CC1)c1cc(=O)[nH]c(C2CC2)n1 [Example 434]
1.1,0.78,,"CC(C)(C)[C@@H](NC(=O)c1cc(=O)[nH]c(C2CC2)n1)c1ccc(C2CC2)c(F)c1 [Example 435, 2-cyclopropyl-N-[(1R)-1-(4-cyclopropyl-3-fluorophenyl)-2,2-dimethylpropyl]-6-oxo-1,6-dihydropyrimidine-4-carboxamide]"
3.5,3.2,,"CC(C)(C)[C@@H](NC(=O)c1cc(=O)[nH]c(C2CC2)n1)c1ccc(OC(F)F)cc1 [Example 436, 2-cyclopropyl-N-{(1R)-1-[4-(difluoromethoxy)phenyl]-2,2-dimethylpropyl}-6-oxo-1,6-dihydropyrimidine-4-carboxamide]"
